The numbers were not newly measured in US20170058346A1, “Methods Employing Non-Coding RNA Expression Assays” (SISTEMIC SCOTLAND LIMITED, priority 2009, published 2017), which cites them from elsewhere.

The subject of the series is HDAC. Conditions: from a literature review.

Regarding `C[S+](C)[O-]` [DMSO, dimethyl sulphoxide], the HDAC inhibitor activity entry was “shown to be an HDAC inhibitor”.
